Assay [1] addresses T1, Keap1 (Kelch-like ECH-associated protein 1) (Homo sapiens, UniProt Q14145).
T1 construct: Kelch domain (residues 321–609)
The assay can be described thus: X-ray crystal structures at […] Å (soaking form 3vnh, cocrystallization form 3vng); SPR; AlphaScreen competition with Nrf2 peptide. It is filed as binding. (In general: Alpha assays give light when donor and acceptor beads are brought close together.)

In assay [2] the target is Nrf2 ETGE motif (Homo sapiens) (UniProt Q16236). The experiment in a line: ITC. The following applies: cited from earlier work.

Chain of Keap1 Kelch domain (Q14145 321-609): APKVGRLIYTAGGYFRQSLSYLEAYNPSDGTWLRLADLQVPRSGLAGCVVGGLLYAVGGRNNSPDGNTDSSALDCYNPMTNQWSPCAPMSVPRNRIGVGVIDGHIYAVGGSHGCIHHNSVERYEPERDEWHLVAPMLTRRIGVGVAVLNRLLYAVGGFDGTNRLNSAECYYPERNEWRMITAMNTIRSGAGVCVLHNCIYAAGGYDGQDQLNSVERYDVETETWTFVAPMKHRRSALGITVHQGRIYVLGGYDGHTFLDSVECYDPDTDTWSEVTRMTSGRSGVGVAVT
T1 sequence (Q14145 321-609): as above

For `O=C(O)COc1cccc(CNC(=O)Nc2nnc(-c3ccco3)o2)c1` [Ligand1, 2-(3-((3-(5-(furan-2-yl)-1,3,4-oxadiazol-2-yl)ureido)methyl)phenoxy)acetic acid], the dissociation constant (Kd) in assay [1] was greater than 50000 nM. For “Keap1 Kelch domain (from UniProt Q14145)”, in assay [2], the dissociation constant (Kd) was 8 nM.

By Kd is commonly meant a measure of binding affinity in units of concentration.
